Measurements as given in patent US6465204B1, “Amidase” (Diversa Corporation, priority 1996, dated 2002).

B1: enzyme: purified thermostable amidase derived from Thermococcus GU5L5, 622 amino acid residues (SEQ ID NO:2) (protein)
chain: MTGIEWNHETFSKFAYLGDPRIRGNLIAYTLTKANMKDNKYESTVVVEDLETGSRRFIENASMPRISPDGRKLAFTCFNEEKKETEIWVADIQTLSAKKVLSTKNVRSMQWNDDSRRLLVVGFKRRDDEDFVFDDDVPVWFDNMGFFDGEKTTFWVLDTEAEEIIEQFEKPRFSSGLWHGDAIVVNVPHREGSKPALFKFYDIVLWKDGEEEKLFERVSFEAVDSDGKRILLRGKKKKRFISEHDWLYLWDGELKPIYEGPLDVWEAKLTEGKVYFLTPDAGRVNLWLWDGKAERVVTGDHWIYGLDVSDGKALLLIMTATRIGELYLYDGELKQVTEYNGPIFRKLKTFEPRHFRFKSKDLEIDGWYLRPEVKEEKAPVIVFVHGGPKGMYGHRFVYEMQLMASKGYYVVFVNPRGSDGYSEDFALRVLERTGLEDFEDIMNGIEEFFKLEPQADRERVGITGISYGGFMTNWALTQSDLFKAGISENGISYWLTSYAFSDIGLWYDVEVIGPNPLENENFRKLSPLFYAQNVKAPILLIHSLEDYRCPLDQSLMFYNVLKDMGKEAYIAIFKRGAHGHSVRGSPRHRPKRYRLFIEFFERKLKKYEEGFEVEKILKGNGN

How the values were obtained:
[1] = test system: Thermococcus GU5L5 amidase; assay: Activity and enantioselectivity of the amidase in increasing concentrations of DMF; type: biochemical; conditions: for Initial Rate: RT, cell lysate, pH 7.5 Hepes
Experimental: The activity and enantioselectivity of the amidase in increasing concentrations of dimethyl formamide (DMF) was tested as follows: to each well of a microtiter plate was added 30 μL of 1 mM CBZ-L-arg-AMC or CBZ-D-arg-AMC in DMF, 30 μL of cell lysate containing the amidase activity, and 240 μL of a variable mixture of DMF:pH 7.5, 50 mM Hepes buffer. The reactiosn were incubated at RT for 1 hour and the fluorescence measured at 1 minute intervals.

[2] = test system: Thermococcus GU5L5 amidase; assay: Substrate specificity of the amidase (fluorogenic substrates); type: biochemical; conditions: substrate 100 μM, 1 hour at 70° C.; ratio between substrates
Experimental: Fifty μL of the ‘600 μM stock solution’ was added to each of the wells of a white condensed plate using the Biomek to yield a final concentration of substrate of ˜100 μM. The fluorescence values were recorded (excitation=400 nm, emission=505 nm) on a plate reading fluorometer immediately after addition of the substrate. The plate was incubated at 70° C. for 60 min. and the fluorescence values were recorded again. The initial and final fluorescence values were subtracted to determine if an active clone was present by an increase in fluorescence over the majority of the other wells.
The excitation and emission wavelengths for the 7-amido-4-methylcoumarins were 380 and 460 nm respectively, and 326 and 450 for the methylumbelliferone.

[3] = Organic solvent sensitivity: activity of the amidase in increasing concentrations of DMSO; type: biochemical, Thermococcus GU5L5
Experimental: The activity of the amidase in increasing concentrations of dimethyl sulfoxide (DMSO) was tested as follows: to each well of a microtiter plate was added 10 μL of 3 mM CBZ-L-phe-AMC in DMSO, 25 μL of cell lysate containing the amidase activity, and 250 μL of a variable mixture of DMSO:pH 7.5, 50 mM Hepes buffer. The reactions were heated for 1 hour at 70° C. and the fluorescence measured. […] The filled and open boxes represent individual assays.

[4] = Temperature tolerance of the enzyme; set-up: species or system Thermococcus GU5L5

Row | Molecule | Initial Rate ([1]; DMF 0.4%) [Fl.U./min] | Initial Rate ([1]; DMF 10%) [Fl.U./min] | Initial Rate ([1]; DMF 20%) [Fl.U./min] | Initial Rate ([1]; DMF 30%) [Fl.U./min] | Initial Rate ([1]; DMF 40%) [Fl.U./min] | Initial Rate ([1]; DMF 50%) [Fl.U./min] | Initial Rate ([1]; DMF 60%) [Fl.U./min] | Initial Rate ([1]; DMF 75%) [Fl.U./min] | Initial Rate ([1]; DMF 90%) [Fl.U./min] | relative activity of the amidase [2] | concentration of organic solvent tolerated [3] [% DMSO] | selectivity for the L enantiomer of the derivatized amino acid substrate ([1]; CBZ-L-arg-AMC versus CBZ-D-arg-AMC) | temperature tolerated [4]
1 | Cc1cc(=O)oc2cc(NC(=O)[C@@H](CCCNC(=N)N)NC(=O)OCc3ccccc3)ccc12 [CBZ-D-arg-AMC, Nα-carbonylbenzyloxy-D-arginine-7-amido-4-methylcoumarin] | 0.3 | 10.1 | 4.6 | 1.8 | 0.9 | 1.2 | 1.4 | 0.1 | 0.1 | – | – | – | –
2 | Cc1cc(=O)oc2cc(NC(=O)[C@H](CCCNC(=N)N)NC(=O)OCc3ccccc3)ccc12 [CBZ-L-arg-AMC, Nα-carbonylbenzyloxy-L-arginine-7-amido-4-methylcoumarin] | 654 | 2548 | 1451 | 541 | 345 | 303 | 190 | 81 | 11 | 3 | – | – | –
3 | CSCC[C@H](NC(=O)OCc1ccccc1)C(=O)Nc1ccc2c(C)cc(=O)oc2c1 [CBZ-L-met-AMC, Nα-carbonylbenzyloxy-L-methionine-7-amido-4-methylcoumarin] | – | – | – | – | – | – | – | – | – | 1 | – | – | –
4 | Cc1cc(=O)oc2cc(NC(=O)[C@H](Cc3ccccc3)NC(=O)OCc3ccccc3)ccc12 [CBZ-L-phe-AMC, Nα-carbonylbenzyloxy-L-phenylalanine-7-amido4-methylcoumarin] | – | – | – | – | – | – | – | – | – | 3 | – | – | –
5 | B1 | – | – | – | – | – | – | – | – | – | – | > 40 | excellent selectivity for the L | at least 70 °C
